Test results from patent publication US8877795B2, “Identification of stabilizers of multimeric proteins” (The Board of Trustees of the Leland Stanford Junior …, priority 2010, dated 2014).

Tests used:
WT TTR = WT TTR (Homo sapiens (Human), UniProt P02766); assay: Acid-mediated fibril formation assay for TTR amyloidogenesis (turbidity); conditions: TTR 3.6 μM; for % fibril formation / TTR aggregation inhibition (in words): ligand 7.2 μM, 72 h; for % fibril formation: pH 4.4, 37° C., no ligand = 100%; for inhibition of fibril formation: substoichiometric: ligand 3.0 μM, monitored over 5 days
Description: The efficacy of each compound to inhibit TTR amyloidogenesis was determined by monitoring the turbidity of TTR aggregation at acidic pH, as described previously. […] The final 1 ml sample mixture was vortexed, then incubated at 37° C. for 72 hours, after which the sample was vortexed and the optical density was measured at 400 nm on a Beckman DU® 640 spectrophotometer. […] The optical density was also corrected for the absorption of all test compounds in the absence of TTR. […] The optical density (400 nm) was measured as described above at 0, 24, 48, 72, 96, and 120 hours. All assays were performed in triplicate and the average values obtained are presented.
TTR was preincubated with small molecules for 30 min at room temperature before amyloidosis was initiated (lowering pH to 4.4, incubation at 37° C.). […] The amyloidogenesis inhibition efficacy of each compound was determined by monitoring the turbidity of TTR (400 nm). The extent of TTR amyloidogenesis was quantitated at a fixed time point (72 h). All amyloid fibril formation data was normalized to TTR amyloidogenesis in the absence of inhibitor, assigned to be 100% fibril formation. […] The aggregation inhibition was monitored over 5 days using the acid-mediated fibril formation assay (compared to 3 days for the fixed time point described above) (FIG. 5B).

TTR = TTR (Homo sapiens (Human), UniProt P02766); assay: Determination of IC50 using the FP assay (HTS format, probe 5); type: binding; conditions: read-out: IC50 (compound concentration that resulted in 50% decrease in the FP signal); dose-response FP assay in duplicate
[1] = test system: WT TTR cytotoxicity in human IMR-32 neuroblastoma cells; assay: Inhibition of WT TTR cytotoxicity in IMR-32 cells; conditions: TTR and ligand 8 μM, 24 h
Description: (§1) The human cardiac cell line AC16 was maintained in DMEM:F12 (1:1) supplemented with 10% FBS, 1 mM Hepes buffer, 2 mM L-glutamine, 100 units/mL penicillin and 100 μg/mL streptomycin. Two to 4-day-old cultures (˜70% confluent) were used for the experiments.
(§2) Recombinant WT TTR purified in the cold in HBSS (Mediatech, Manassas, Va.) was used as a cytotoxic insult to IMR-32 cells and the amyloidogenic V122I TTR was used as cytotoxic insult to cardiac AC16 cells. Candidate compounds (16 mM in DMSO) were diluted 1:1000 with WT TTR or V122I TTR (16 mM in HBSS, filter sterilized) or with HBSS only. The mixtures were vortexed and incubated for 24 h at 4° C. WT TTR or V122I TTR (16 mM in HBSS) containing the same amount of DMSO than TTR/candidate compound mixtures was prepared in parallel and incubated under the same conditions.
(§3) The neuroblastoma IMR-32 and the cardiac AC16 cells were seeded in black wall, clear bottom, tissue culture treated 96-well plates (Costar) at a density of 6,000 cells/well and 250 cells/well, respectively in Opti-mem supplemented with 5% FBS, 1 mM Hepes buffer, 2 mM L-glutamine, 100 units/mL penicillin and 100 μg/mL streptomycin, 0.05 mg/mL CaCl2 and incubated overnight at 37° C. The medium was then removed and replaced immediately by the TTR/compound or HBSS previously diluted 1:1 in Opti-mem supplemented with 0.8 mg/mL BSA, 2 mM Hepes buffer, 4 mM L-glutamine, 200 units/mL penicillin, 200 μg/mL streptomycin and 0.1 mg/mL CaCl2. The cells were incubated 24 h at 37° C. after which cell viability was measured.
(§4) Cell viability of the cells treated with TTR or TTR/candidate compound was evaluated by a resazurin reduction assay. Briefly, 10 μL/well of resazurin (500 mM, PBS) was added to each well and incubated for 2-3 h at 37° C. Viable cells reduce resazurin to the highly fluorescent resorufin dye, which is quantitated in a multiwell plate reader (Ex/Em 530/590 nm, Tecan Safire2, Austria). Cell viability was calculated as percentage of fluorescence relative to cells treated with vehicle only (100% viability) after subtraction of blank fluorescence (wells without cells). All experimental conditions were performed at least in six replicates. Averages and SEM corresponding to 2 independently performed experiments were calculated.
(§5) The compounds under study were pre-incubated with WT TTR or V122I TTR for 24 h at 4° C. at equimolar concentrations (8 μM) and added to IMR-32 cells or AC16 cells, respectively. Cell viability was measured after 24 h by a resazurin reduction assay. […] The percentage of viable cells was calculated relative to cells treated with vehicle only (cell culture media and DMSO)—which were assigned to be 100% viable.

[2] = test system: V122I TTR cytotoxicity in human AC16 cardiac cells; assay: Inhibition of V122I TTR cytotoxicity in AC16 cells; conditions: TTR and ligand 8 μM, 24 h
Description: as §1, §2, §3, §4, §5

human wild type TTR = human wild type TTR (Homo sapiens (Human), UniProt P02766); assay: Isothermal titration calorimetry (ITC) of ligands against TTR; type: binding; conditions: for TΔS binding entropy / ΔG binding free energy / ΔH binding enthalpy: ITC; for Kd: TTR 2 μM titrated with ligand 25 μM, 25° C., one-to-one binding model, read-out: Kd (ITC)
Description: Calorimetric titrations were carried out on a VP-ITC calorimeter (MicroCal, Northhampton, Mass.). […] Prior to each titration, all samples were degassed for 10 minutes. The initial injection of 3.0 μL was followed by 30 injections of 8.0 μL each (25° C.) to the point that TTR was fully saturated with ligand. Integration of the thermogram after subtraction of blanks yielded a binding isotherm that was analyzed with MicroCal Origin 5.0 software.

SMILES | % fibril formation (WT TTR) [%] | IC50 (TTR) [µM] | other results
COc1ccc(/C=N/n2c(S)nnc2C(F)(F)F)cc1O | 0.43 ± 0.61 | 0.277 | –
COc1c(Br)cc(/C=C2\SC(=O)NC2=O)cc1Br | 0.37 ± 0.53 | 0.301 | –
CCOc1ccccc1-c1nc(-c2ccncc2)no1 | 0.00 ± 0.00 | – | –
CC1(C)NC(=O)C(C#N)=C(SCc2ccccc2)S1 | 0.52 ± 0.73 | 0.433 | –
Cc1[nH]c2ccccc2c1C(C#N)(C#N)C1C(=O)c2ccccc2C1=O | 5.77 ± 3.91 | 0.586 | –
O=c1cc(-c2ccc(O)cc2)oc2cc(O)cc(O)c12 | 10.07 ± 0.53 | 0.653 | –
O=C1NC(=O)/C(=C/c2cccc(C(F)(F)F)c2)S1 | 1.92 ± 1.08 | 0.815 | –
O=C1NC(=O)/C(=C/c2cccc3ccccc23)S1 | 3.22 ± 0.34 | 0.842 | –
O=C(O)c1cc2nc(-c3ccc(Cl)c(Cl)c3)cc(C(F)(F)F)n2n1 | 1.81 ± 2.56 | 2.58 | –
COc1ccccc1CC(=O)c1ccc(O)cc1O | 9.60 ± 1.58 | 2.66 | –
Cc1ccccc1/C=C1\SC(=O)NC1=O | 10.44 ± 4.88 | 3.35 | –
O=c1c(Oc2ccccc2Br)coc2cc(O)ccc12 | 13.91 ± 1.28 | 3.71 | –
O=C(O)Cc1ccccc1Nc1c(O)cccc1Cl | 11.56 ± 0.72 | 3.74 | –
O=C1NC(=O)/C(=C/c2ccc(-c3ccc(Cl)c(C(=O)O)c3)o2)S1 | 13.90 ± 5.52 | 3.93 | –
O=c1c(Oc2ccccc2Cl)c(C(F)(F)F)oc2cc(O)ccc12 | 24.36 ± 1.11 | 4.22 | –
N#CC1=C(SCc2ccccc2)SC(c2ccccc2O)NC1=O (centres unmarked) | 3.17 ± 4.48 | 4.79 | –
CSC1=NSC2=NC(=O)/C(=C\c3cccc4ccccc34)C(=N)N12 | 28.77 ± 6.36 | 4.88 | –
CCOc1cc(C2NC(C(=O)O)CS2)cc(Br)c1OCc1ccccc1C (centres unmarked) | 17.57 ± 4.81 | 4.93 | –
O=C1C(Br)=CC(=NS(=O)(=O)c2ccccc2)C=C1Br | 43.25 ± 4.35 | 5.41 | –
Oc1nc(O)c2sc3nc(C(F)(F)F)cc(Cc4ccccc4)c3c2n1 | 35.32 ± 3.69 | 5.6 | –

SMILES | % fibril formation (WT TTR) [%] | IC50 (TTR) [µM] | other results
O=C1NC(=O)/C(=C/c2ccccc2OCc2ccccc2)S1 | 38.38 ± 3.33 | 5.8 | –
CC1=C(CCC(=O)O)C(=O)N2c3ccccc3NC2C1C#N (centres unmarked) | 46.24 ± 1.33 | 8.69 | –
COc1cc(/C=C2\C(=N)N3N=C(S(C)(=O)=O)SC3=NC2=O)ccc1OCc1ccccc1C | 48.25 ± 0.68 | 9.76 | –
O=C(NCc1cc(Br)cc(Br)c1O)c1ccccc1 | 50.96 ± 1.98 | 10 | –
CC(=O)Nc1ccc(Nc2nc3ccccc3nc2NS(=O)(=O)c2ccc(C)cc2)cc1 | 49.43 ± 4.26 | 10.6 | –
Cc1nc2c(C(=O)NCCC(C)C)cnn2c(O)c1Cc1ccccc1F | 47.39 ± 1.94 | 11 | –
O=[N+]([O-])c1cc(O)c(O)c([N+](=O)[O-])c1 [3,5-dinitrocatechol, reference compound] | – | – | prevention of WT TTR-induced cytotoxicity (in words) [1]: poor inhibitor; TTR aggregation inhibition (in words) (WT TTR): potent aggregation inhibitors; prevention of V122I TTR-induced cytotoxicity (in words) [2]: poor inhibitor
NCCOCCOCCOc1c(Cl)cc(Nc2ccccc2C(=O)O)cc1Cl [Compound 4, 2-(4-(2-(2-(2-aminoethoxy)ethoxy)ethoxy)-3,5-dichlorophenylamino)benzoic acid] | – | – | TΔS binding entropy (human wild type TTR): 0.08 ± 0.01 kcal/mol; ΔG binding free energy (human wild type TTR): -8.93 ± 0.14 kcal/mol; ΔH binding enthalpy (human wild type TTR): -8.85 ± 0.95 kcal/mol; Kd (human wild type TTR): 285 nM
O=C(O)c1ccccc1Nc1cc(Cl)c(OCCOCCOCCNC(=S)Nc2ccc3c(c2)C(=O)OC32c3ccc(O)cc3Oc3cc(O)ccc32)c(Cl)c1 [Compound 5, 2-(3,5-dichloro-4-(2-(2-(2-(3-(3′,6′-dihydroxy-3-oxo-3H-spiro[isobenzofuran-1,9′-xanthene]-5-yl)thioureido)ethoxy)ethoxy)ethoxy)phenylamino)benzoic acid] | – | – | decrease in binding affinity to TTR on attaching FITC to 4 (human wild type TTR; 5 relative to 4): ~3 fold; TΔS binding entropy (human wild type TTR): 1.44 ± 0.07 kcal/mol; ΔG binding free energy (human wild type TTR): -8.30 ± 0.45 kcal/mol; ΔH binding enthalpy (human wild type TTR): -6.86 ± 0.36 kcal/mol; Kd (human wild type TTR): 820 nM
Cc1n[nH]c(C)c1CCCOc1ccccc1F [Compound 7] | – | – | prevention of WT TTR-induced cytotoxicity (in words) [1]: completely prevented TTR-induced cytotoxicity; inhibition of fibril formation (WT TTR): > 75%; TΔS binding entropy (human wild type TTR): -0.15 ± 0.002 kcal/mol; ΔG binding free energy (human wild type TTR): -8.86 ± 0.17 kcal/mol; ΔH binding enthalpy (human wild type TTR): -9.01 ± 0.13 kcal/mol; Kd (human wild type TTR): 321 nM; prevention of V122I TTR-induced cytotoxicity (in words) [2]: completely prevented TTR-induced cytotoxicity
CN1C(=N)NC(=O)/C1=C/c1cc(Br)c(O)c(Br)c1 [Compound 14] | – | – | prevention of WT TTR-induced cytotoxicity (in words) [1]: completely prevented TTR-induced cytotoxicity; inhibition of fibril formation (WT TTR): > 75%; TΔS binding entropy (human wild type TTR): 2.36 ± 0.08 kcal/mol; ΔG binding free energy (human wild type TTR): -9.02 ± 0.19 kcal/mol; ΔH binding enthalpy (human wild type TTR): -6.66 ± 0.22 kcal/mol; Kd (human wild type TTR): 245 nM; prevention of V122I TTR-induced cytotoxicity (in words) [2]: completely prevented TTR-induced cytotoxicity
Cc1n[nH]c(C)c1CCc1nc2c3ccccc3[nH]c(=S)n2n1 [Compound 15] | – | – | prevention of WT TTR-induced cytotoxicity (in words) [1]: completely prevented TTR-induced cytotoxicity; inhibition of fibril formation (WT TTR): > 75%; prevention of V122I TTR-induced cytotoxicity (in words) [2]: completely prevented TTR-induced cytotoxicity
O=C(O)c1cccnc1Nc1cccc(C(F)(F)F)c1 [Niflumic acid, niflumic acid, reference compound] | – | – | TTR aggregation inhibition (in words) (WT TTR): potent aggregation inhibitors; prevention of V122I TTR-induced cytotoxicity (in words) [2]: relatively poor inhibitor
O=C(O)c1cccnc1Nc1cccc(C(F)(F)F)c1 [drawing 60] | 4.83 ± 1.19 | – | –
Cc1n[nH]c(C)c1CCCOc1ccccc1F [drawing 61] | 0.75 ± 1.06 | 0.296 | –
O=[N+]([O-])c1cc(O)c(O)c([N+](=O)[O-])c1 [drawing 68] | 1.08 ± 0.59 | – | –
O=C(c1cc(O)c(O)c([N+](=O)[O-])c1)c1ccccc1F [drawing 69] | 0.32 ± 0.45 | 0.755 | –
CN1C(=N)NC(=O)/C1=C/c1cc(Br)c(O)c(Br)c1 [drawing 72] | 0.00 ± 0.00 | 1.15 | –
Cc1n[nH]c(C)c1CCc1nc2c3ccccc3[nH]c(=S)n2n1 [drawing 73] | 0.00 ± 0.00 | 1.31 | –
